“And” between values parts separate entries of the source, which are not always exact repeats. Identical values can stand only once.
Test system: 876862-298-R-J1-PDC complex spheroids, viability % test/control
Assay: Anticancer human tumor 876862-298-R-J1-PDC patient-derived endometrial carcinoma cell line growth inhibition [CLK]
Conditions: for viability, T/C: stronger effect = lower value
Summary of the method: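 Patient-derived tumor cells grown as complex spheroids with HUVEC endothelial cells and mesenchymal stem cells, treated with drug combinations. Concentrations descend in half-log steps from near clinical Cmax, or from 10 microM if Cmax unknown.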

[1] = curve of first compound, second compound 0.0316 µM
[2] = curve of first compound, second compound 0.1 µM
[3] = curve of first compound, second compound 0.316 µM
[4] = curve of first compound, second compound 1 µM
[5] = curve of first compound, second compound 3.16 µM
[6] = curve of first compound, second compound 10 µM
[7] = second compound 0.0316 µM, first compound 0.0316 µM
[8] = second compound 0.0316 µM, first compound 0.1 µM
[9] = second compound 0.0316 µM, first compound 0.316 µM
[10] = second compound 0.0316 µM, first compound 1 µM
[11] = second compound 0.0316 µM, first compound 3.16 µM
[12] = second compound 0.0316 µM, first compound 10 µM
[13] = second compound 0.1 µM, first compound 0.0316 µM
[14] = second compound 0.1 µM, first compound 0.1 µM
[15] = second compound 0.1 µM, first compound 0.316 µM
[16] = second compound 0.1 µM, first compound 1 µM
[17] = second compound 0.1 µM, first compound 3.16 µM
[18] = second compound 0.1 µM, first compound 10 µM
[19] = second compound 0.316 µM, first compound 0.0316 µM
[20] = second compound 0.316 µM, first compound 0.1 µM
[21] = second compound 0.316 µM, first compound 0.316 µM
[22] = second compound 0.316 µM, first compound 1 µM
[23] = second compound 0.316 µM, first compound 3.16 µM
[24] = second compound 0.316 µM, first compound 10 µM
[25] = second compound 1 µM, first compound 0.0316 µM
[26] = second compound 1 µM, first compound 0.1 µM
[27] = second compound 1 µM, first compound 0.316 µM
[28] = second compound 1 µM, first compound 1 µM
[29] = second compound 1 µM, first compound 3.16 µM
[30] = second compound 1 µM, first compound 10 µM
[31] = second compound 3.16 µM, first compound 0.0316 µM
[32] = second compound 3.16 µM, first compound 0.1 µM
[33] = second compound 3.16 µM, first compound 0.316 µM
[34] = second compound 3.16 µM, first compound 1 µM
[35] = second compound 3.16 µM, first compound 3.16 µM
[36] = second compound 3.16 µM, first compound 10 µM
[37] = second compound 10 µM, first compound 0.0316 µM
[38] = second compound 10 µM, first compound 0.1 µM
[39] = second compound 10 µM, first compound 0.316 µM
[40] = second compound 10 µM, first compound 1 µM
[41] = second compound 10 µM, first compound 3.16 µM
[42] = second compound 10 µM, first compound 10 µM
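Note: spheroids exposed to drugs for 7 days before readout.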
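Throughout, for viability, T/C: 100% = DMSO vehicle control wells.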

## C=CC(=O)N1CCN(c2nc(=O)n(-c3c(C)ccnc3C(C)C)c3nc(-c4c(O)cccc4F)c(F)cc23)C(C)C1 (stereo not drawn) + CN1CCN(c2cc(C(=O)Nc3cc4cc(-c5cnn(C)c5)ccc4cn3)ccn2)CC1
[1]
  IC50: > 10000 nM
[2]
  IC50: 1720 nM
[3]
  IC50: < 31.6 nM
[4]
  IC50: < 31.6 nM
[5]
  IC50: < 31.6 nM
[6]
  IC50: < 31.6 nM
[7]
  viability, T/C: 80.7%
[8]
  viability, T/C: 90.6%
[9]
  viability, T/C: 91%
[10]
  viability, T/C: 96.3%
[11]
  viability, T/C: 99%
[12]
  viability, T/C: 58.4%
[13]
  viability, T/C: 57.9%
[14]
  viability, T/C: 47.9%
[15]
  viability, T/C: 49.9%
[16]
  viability, T/C: 57.7%
[17]
  viability, T/C: 45.7%
[18]
  viability, T/C: 30.3%
[19]
  viability, T/C: 5.51%
[20]
  viability, T/C: 4.35%
[21]
  viability, T/C: 4.39%
[22]
  viability, T/C: 4.13%
[23]
  viability, T/C: 4.65%
[24]
  viability, T/C: 2.26%
[25]
  viability, T/C: 0.86%
[26]
  viability, T/C: 1.32%
[27]
  viability, T/C: 1.28%
[28]
  viability, T/C: 2.28%
[29]
  viability, T/C: 4.17%
[30]
  viability, T/C: 2.16%
[31]
  viability, T/C: 1.53%
[32]
  viability, T/C: 2.07%
[33]
  viability, T/C: 2.2%
[34]
  viability, T/C: 2.58%
[35]
  viability, T/C: 3.3%
[36]
  viability, T/C: 2.74%
[37]
  viability, T/C: 0.76%
[38]
  viability, T/C: 1.59%
[39]
  viability, T/C: 1.62%
[40]
  viability, T/C: 2.38%
[41]
  viability, T/C: 2.32%
[42]
  viability, T/C: 2.42%

## O=C(c1cc(Cc2n[nH]c(=O)c3ccccc23)ccc1F)N1CCN(C(=O)C2CC2)CC1 + CNC(=O)c1ccc(Nc2nc(OC3CCCC3)c3c(-c4ccc5nc(C)oc5c4)c[nH]c3n2)c(OC)c1
[1]
  IC50: > 10000 nM
[2]
  IC50: 2090 nM
[3]
  IC50: < 31.6 nM
[4]
  IC50: < 31.6 nM
[5]
  IC50: < 31.6 nM
[6]
  IC50: < 31.6 nM
[7]
  viability, T/C: 70.5%
[8]
  viability, T/C: 97%
[9]
  viability, T/C: 84.5%
[10]
  viability, T/C: 94.7%
[11]
  viability, T/C: 96.8%
[12]
  viability, T/C: 72.6%
[13]
  viability, T/C: 47.4%
[14]
  viability, T/C: 55%
[15]
  viability, T/C: 50.6%
[16]
  viability, T/C: 50.6%
[17]
  viability, T/C: 51.5%
[18]
  viability, T/C: 47.3%
[19]
  viability, T/C: 49.1%
[20]
  viability, T/C: 44.6%
[21]
  viability, T/C: 40.6%
[22]
  viability, T/C: 40.6%
[23]
  viability, T/C: 39.4%
[24]
  viability, T/C: 35.9%
[25]
  viability, T/C: 39.1%
[26]
  viability, T/C: 33.7%
[27]
  viability, T/C: 29.6%
[28]
  viability, T/C: 34.1%
[29]
  viability, T/C: 31.3%
[30]
  viability, T/C: 26.1%
[31]
  viability, T/C: 25.5%
[32]
  viability, T/C: 23.7%
[33]
  viability, T/C: 20.4%
[34]
  viability, T/C: 25.3%
[35]
  viability, T/C: 23.3%
[36]
  viability, T/C: 14.3%
[37]
  viability, T/C: 22%
[38]
  viability, T/C: 21.5%
[39]
  viability, T/C: 20.8%
[40]
  viability, T/C: 19.4%
[41]
  viability, T/C: 23.5%
[42]
  viability, T/C: 14.6%

## Cn1ncnc1[C@H]1c2n[nH]c(=O)c3cc(F)cc(c23)N[C@@H]1c1ccc(F)cc1 + CNC(=O)c1ccc(Nc2nc(OC3CCCC3)c3c(-c4ccc5nc(C)oc5c4)c[nH]c3n2)c(OC)c1
[1]
  IC50: > 100 nM
[2]
  IC50: < 0.316 nM
[3]
  IC50: < 0.316 nM
[4]
  IC50: < 0.316 nM
[5]
  IC50: < 0.316 nM
[6]
  IC50: < 0.316 nM
Second compound 0.0316 µM, first compound 0.000316 µM
  viability, T/C: 67.3%
Second compound 0.0316 µM, first compound 0.001 µM
  viability, T/C: 84.6%
Second compound 0.0316 µM, first compound 0.00316 µM
  viability, T/C: 73.4%
Second compound 0.0316 µM, first compound 0.01 µM
  viability, T/C: 79.9%
[7]
  viability, T/C: 89.7%
[8]
  viability, T/C: 77.5%
Second compound 0.1 µM, first compound 0.000316 µM
  viability, T/C: 42.2%
Second compound 0.1 µM, first compound 0.001 µM
  viability, T/C: 45.4%
Second compound 0.1 µM, first compound 0.00316 µM
  viability, T/C: 46.7%
Second compound 0.1 µM, first compound 0.01 µM
  viability, T/C: 46.5%
[13]
  viability, T/C: 53%
[14]
  viability, T/C: 45.6%
Second compound 0.316 µM, first compound 0.000316 µM
  viability, T/C: 40.9%
Second compound 0.316 µM, first compound 0.001 µM
  viability, T/C: 44.5%
Second compound 0.316 µM, first compound 0.00316 µM
  viability, T/C: 46%
Second compound 0.316 µM, first compound 0.01 µM
  viability, T/C: 43.3%
[19]
  viability, T/C: 44.1%
[20]
  viability, T/C: 36.7%
Second compound 1 µM, first compound 0.000316 µM
  viability, T/C: 31.3%
Second compound 1 µM, first compound 0.001 µM
  viability, T/C: 32.9%
Second compound 1 µM, first compound 0.00316 µM
  viability, T/C: 30%
Second compound 1 µM, first compound 0.01 µM
  viability, T/C: 28.5%
[25]
  viability, T/C: 26.8%
[26]
  viability, T/C: 27.9%
Second compound 3.16 µM, first compound 0.000316 µM
  viability, T/C: 22.8%
Second compound 3.16 µM, first compound 0.001 µM
  viability, T/C: 23.2%
Second compound 3.16 µM, first compound 0.00316 µM
  viability, T/C: 19.6%
Second compound 3.16 µM, first compound 0.01 µM
  viability, T/C: 21.5%
[31]
  viability, T/C: 21.7%
[32]
  viability, T/C: 18.5%
Second compound 10 µM, first compound 0.000316 µM
  viability, T/C: 21.1%
Second compound 10 µM, first compound 0.001 µM
  viability, T/C: 22.4%
Second compound 10 µM, first compound 0.00316 µM
  viability, T/C: 20%
Second compound 10 µM, first compound 0.01 µM
  viability, T/C: 23.3%
[37]
  viability, T/C: 17.5%
[38]
  viability, T/C: 16.2%

## Nc1ccccc1NC(=O)c1ccc(CNC(=O)OCc2cccnc2)cc1
Compound 0.0316 µM
  viability, T/C: 99.9% and 95.4%
Compound 0.1 µM
  viability, T/C: 106% and 99.6%
Compound 0.316 µM
  viability, T/C: 105%
Compound 1 µM
  viability, T/C: 91.7% and 106%
Compound 3.16 µM
  viability, T/C: 80.1% and 75.2%
Compound 10 µM
  viability, T/C: 39.1% and 29.7%
Curve of compound
  IC50: 7340 nM and 6000 nM

— PubChem BioAssay AID2060607 (Molecular Pharmacology Branch, DTP, NCI, 2025)
